Literature values, collected in patent US8460687B1, “Peeling compositions” (Cosmoceutical Research Center, priority 2009, dated 2013).
Where two headings read alike, the source gives them in different places.

O=P(O)(O)O[C@H]1[C@H](OP(=O)(O)O)[C@@H](OP(=O)(O)O)[C@H](OP(=O)(O)O)[C@@H](OP(=O)(O)O)[C@H]1OP(=O)(O)O [Phytic acid, inisitol hexakisphosphate]
pH of aqueous solution (0.66 g/l): 2.68
pH of aqueous solution (66 g/l): 0.9
